{
  "source": "ChEMBL document CHEMBL1146715",
  "about": "“The discovery and synthesis of novel adenosine substituted 2,3-dihydro-1H-isoindol-1-ones: potent inhibitors of poly(ADP-ribose) polymerase-1 (PARP-1)” (Bioorg Med Chem Lett, 2004)",
  "data": [
    {"target": "Poly [ADP-ribose] polymerase 1 (Mus musculus) (UniProt P11103)", "sequence (P11103 whole entry)": "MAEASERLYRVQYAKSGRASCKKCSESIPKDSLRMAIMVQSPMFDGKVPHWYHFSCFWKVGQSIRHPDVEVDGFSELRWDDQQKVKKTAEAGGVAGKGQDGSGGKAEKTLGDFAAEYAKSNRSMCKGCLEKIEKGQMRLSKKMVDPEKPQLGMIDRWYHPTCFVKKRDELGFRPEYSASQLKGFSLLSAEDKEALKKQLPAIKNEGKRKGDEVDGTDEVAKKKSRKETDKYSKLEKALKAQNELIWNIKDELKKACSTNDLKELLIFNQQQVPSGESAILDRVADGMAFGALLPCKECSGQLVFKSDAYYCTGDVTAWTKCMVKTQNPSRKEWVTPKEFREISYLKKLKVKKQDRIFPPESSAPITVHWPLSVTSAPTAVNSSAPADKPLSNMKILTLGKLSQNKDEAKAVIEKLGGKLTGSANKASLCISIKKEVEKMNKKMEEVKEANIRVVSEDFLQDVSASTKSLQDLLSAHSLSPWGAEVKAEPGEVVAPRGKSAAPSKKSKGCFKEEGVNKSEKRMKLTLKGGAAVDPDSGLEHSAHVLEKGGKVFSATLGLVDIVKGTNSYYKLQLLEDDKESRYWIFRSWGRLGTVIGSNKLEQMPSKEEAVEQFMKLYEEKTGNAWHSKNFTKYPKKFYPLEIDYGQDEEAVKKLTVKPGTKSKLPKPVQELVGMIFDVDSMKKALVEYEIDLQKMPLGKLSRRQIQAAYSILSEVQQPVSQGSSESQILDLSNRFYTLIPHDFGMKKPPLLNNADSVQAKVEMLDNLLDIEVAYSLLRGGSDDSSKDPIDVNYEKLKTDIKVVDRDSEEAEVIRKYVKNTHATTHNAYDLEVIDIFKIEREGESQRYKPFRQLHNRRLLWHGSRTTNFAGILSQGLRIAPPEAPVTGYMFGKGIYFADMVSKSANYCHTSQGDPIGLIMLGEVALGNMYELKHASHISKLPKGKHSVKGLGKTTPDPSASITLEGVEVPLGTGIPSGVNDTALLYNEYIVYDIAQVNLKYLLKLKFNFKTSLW", "assay": "Percent inhibition of poly(ADP-ribose) polymerase-1 (PARP-1) in mouse using Cell protection assay at 10 uM", "units": {"inhibition": "%"}, "values": [
      {"smiles": "Nc1ncnc2c1ncn2C1O[C@H](CNC(=O)/C=C/c2ccc(C(=O)Nc3cccc4c3CNC4=O)cc2)[C@@H](O)[C@H]1O", "note": "(some centres undefined)", "inhibition": 51},
      {"smiles": "O=C1N=Cc2ccccc21", "inhibition": 33},
      {"smiles": "O=C(CCCCCCC(=O)Nc1cccc2c1CNC2=O)NC[C@H]1OC(n2cnc3c(O)ncnc32)[C@H](O)[C@@H]1O", "note": "(some centres undefined)", "inhibition": 30},
      {"smiles": "NC(=O)c1cccc(NC(=O)CCC(=O)NCC2OC(n3cnc4c(N)ncnc43)[C@H](O)[C@@H]2O)c1", "note": "(some centres undefined)", "inhibition": 52}
    ]}
  ]
}
